# Patent US20080051466A1, “Isoalpha acid based protein kinase modulation cancer treatment” (Metaproteomics, LLC, priority 2006, published 2008)
# Columns and labels:
# Assay in all cases: KinaseProfiler Assay
# Assay type in all cases: biochemical
# ALK4 = ALK4 (Homo sapiens, UniProt P36896); conditions: read-out: ALK4, % of Control
# Aurora-A = biological target: T1, Aurora-A (Homo sapiens, UniProt O14965); conditions: read-out: Aurora-A, % of Control
# T1 sequence (O14965 1-403): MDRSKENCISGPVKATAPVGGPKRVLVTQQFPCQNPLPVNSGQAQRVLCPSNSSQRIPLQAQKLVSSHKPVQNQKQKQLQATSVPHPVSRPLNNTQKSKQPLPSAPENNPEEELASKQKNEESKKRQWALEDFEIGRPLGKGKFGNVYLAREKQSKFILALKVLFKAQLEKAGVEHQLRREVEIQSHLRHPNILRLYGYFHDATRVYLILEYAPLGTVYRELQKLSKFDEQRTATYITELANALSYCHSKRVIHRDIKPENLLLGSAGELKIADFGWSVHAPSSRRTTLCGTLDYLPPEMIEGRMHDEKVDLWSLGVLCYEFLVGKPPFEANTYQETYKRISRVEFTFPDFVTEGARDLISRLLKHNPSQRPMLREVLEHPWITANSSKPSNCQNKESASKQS
# BTK = BTK (Homo sapiens, UniProt Q06187); conditions: read-out: BTK, % of Control
# BTK, sequence (Q06187 whole entry): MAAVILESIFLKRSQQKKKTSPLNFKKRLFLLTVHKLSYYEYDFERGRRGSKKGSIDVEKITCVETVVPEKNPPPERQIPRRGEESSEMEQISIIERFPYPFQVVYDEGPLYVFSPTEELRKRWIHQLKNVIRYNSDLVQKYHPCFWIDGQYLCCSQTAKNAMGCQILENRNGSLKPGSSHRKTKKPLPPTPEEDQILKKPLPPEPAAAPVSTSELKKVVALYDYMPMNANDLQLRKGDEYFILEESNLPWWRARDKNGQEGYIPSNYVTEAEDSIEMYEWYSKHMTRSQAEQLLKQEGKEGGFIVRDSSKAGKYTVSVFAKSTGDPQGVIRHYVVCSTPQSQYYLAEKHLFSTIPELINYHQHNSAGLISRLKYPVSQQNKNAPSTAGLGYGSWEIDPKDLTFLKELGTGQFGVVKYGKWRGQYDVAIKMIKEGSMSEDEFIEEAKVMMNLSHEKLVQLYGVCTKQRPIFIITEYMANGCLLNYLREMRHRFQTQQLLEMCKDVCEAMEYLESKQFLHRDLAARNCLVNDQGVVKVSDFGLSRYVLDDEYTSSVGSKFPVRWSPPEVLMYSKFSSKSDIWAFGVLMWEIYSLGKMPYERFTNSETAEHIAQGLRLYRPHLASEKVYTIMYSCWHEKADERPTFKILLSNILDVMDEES
# DAPK2 = DAPK2 (Homo sapiens, UniProt Q9UIK4); conditions: read-out: DAPK2, % of Control
# DAPK2, sequence (Q9UIK4 whole entry): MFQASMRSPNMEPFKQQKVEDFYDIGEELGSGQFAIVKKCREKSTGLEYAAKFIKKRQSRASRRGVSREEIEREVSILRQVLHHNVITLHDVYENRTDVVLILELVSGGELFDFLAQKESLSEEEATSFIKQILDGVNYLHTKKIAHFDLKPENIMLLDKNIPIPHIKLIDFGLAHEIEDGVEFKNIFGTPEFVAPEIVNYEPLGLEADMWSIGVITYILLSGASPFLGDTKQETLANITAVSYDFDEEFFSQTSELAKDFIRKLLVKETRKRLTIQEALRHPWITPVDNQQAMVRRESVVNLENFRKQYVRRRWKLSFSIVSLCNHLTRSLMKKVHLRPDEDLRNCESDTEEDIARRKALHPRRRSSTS
# DRAK1 = biological target: T2, DRAK1 (Homo sapiens, UniProt Q9UEE5); conditions: read-out: DRAK1, % of Control
# T2 sequence (Q9UEE5 1-414): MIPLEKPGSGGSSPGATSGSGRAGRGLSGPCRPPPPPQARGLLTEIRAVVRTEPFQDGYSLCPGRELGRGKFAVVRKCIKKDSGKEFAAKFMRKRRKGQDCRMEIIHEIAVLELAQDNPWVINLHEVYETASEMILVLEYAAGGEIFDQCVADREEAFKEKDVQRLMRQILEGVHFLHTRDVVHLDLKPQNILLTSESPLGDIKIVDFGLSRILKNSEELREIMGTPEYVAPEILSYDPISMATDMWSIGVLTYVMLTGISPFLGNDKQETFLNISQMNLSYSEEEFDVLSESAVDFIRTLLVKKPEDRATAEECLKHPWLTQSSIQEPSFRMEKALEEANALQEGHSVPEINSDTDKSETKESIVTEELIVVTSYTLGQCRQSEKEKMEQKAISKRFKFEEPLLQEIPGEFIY
# FGFR2 = FGFR2 (Homo sapiens, UniProt P21802); conditions: read-out: FGFR2, % of Control
# FGFR2, sequence (P21802 22-821): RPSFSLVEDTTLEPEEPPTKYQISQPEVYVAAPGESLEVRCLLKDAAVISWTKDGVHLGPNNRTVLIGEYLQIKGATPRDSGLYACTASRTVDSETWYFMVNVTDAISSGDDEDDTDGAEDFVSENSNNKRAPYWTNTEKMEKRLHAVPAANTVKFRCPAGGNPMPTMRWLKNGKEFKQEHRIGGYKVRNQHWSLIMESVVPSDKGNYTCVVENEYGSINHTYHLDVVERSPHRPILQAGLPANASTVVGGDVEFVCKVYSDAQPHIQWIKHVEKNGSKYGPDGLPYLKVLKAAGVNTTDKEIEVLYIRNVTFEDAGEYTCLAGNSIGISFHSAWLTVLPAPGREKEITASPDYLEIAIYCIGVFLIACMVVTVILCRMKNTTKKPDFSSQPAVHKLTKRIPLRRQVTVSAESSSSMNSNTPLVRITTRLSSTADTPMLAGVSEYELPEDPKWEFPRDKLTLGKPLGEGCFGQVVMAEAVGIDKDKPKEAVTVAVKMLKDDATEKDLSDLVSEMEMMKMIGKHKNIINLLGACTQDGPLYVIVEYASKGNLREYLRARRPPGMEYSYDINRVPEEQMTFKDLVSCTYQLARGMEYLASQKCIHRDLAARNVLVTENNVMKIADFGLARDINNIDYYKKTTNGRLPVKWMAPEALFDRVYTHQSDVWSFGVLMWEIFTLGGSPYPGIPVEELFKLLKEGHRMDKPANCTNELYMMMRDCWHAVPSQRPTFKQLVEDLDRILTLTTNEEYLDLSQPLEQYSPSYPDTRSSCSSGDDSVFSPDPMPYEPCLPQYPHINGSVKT
# Hck = Hck (Homo sapiens, UniProt P08631); conditions: read-out: Hck, % of Control
# Hck, sequence (P08631 whole entry): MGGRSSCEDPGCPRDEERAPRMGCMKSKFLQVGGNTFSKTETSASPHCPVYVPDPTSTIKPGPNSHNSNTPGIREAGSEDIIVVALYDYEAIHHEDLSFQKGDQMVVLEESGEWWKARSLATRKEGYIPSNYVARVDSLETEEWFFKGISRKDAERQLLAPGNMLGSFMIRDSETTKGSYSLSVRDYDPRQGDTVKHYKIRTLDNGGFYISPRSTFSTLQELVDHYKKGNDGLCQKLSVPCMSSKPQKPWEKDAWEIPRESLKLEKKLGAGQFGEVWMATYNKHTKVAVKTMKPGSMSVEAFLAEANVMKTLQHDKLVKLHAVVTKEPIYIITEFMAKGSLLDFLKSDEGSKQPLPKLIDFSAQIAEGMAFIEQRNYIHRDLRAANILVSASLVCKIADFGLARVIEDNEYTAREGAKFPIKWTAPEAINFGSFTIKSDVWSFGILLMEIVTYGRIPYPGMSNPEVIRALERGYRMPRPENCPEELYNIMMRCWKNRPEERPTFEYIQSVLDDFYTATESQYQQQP
# HIPK2 = HIPK2 (Homo sapiens, UniProt Q9H2X6); conditions: read-out: HIPK2, % of Control
# PAK3 = PAK3 (Homo sapiens, UniProt O75914); conditions: read-out: PAK3, % of Control
# PAK3, sequence (O75914 whole entry): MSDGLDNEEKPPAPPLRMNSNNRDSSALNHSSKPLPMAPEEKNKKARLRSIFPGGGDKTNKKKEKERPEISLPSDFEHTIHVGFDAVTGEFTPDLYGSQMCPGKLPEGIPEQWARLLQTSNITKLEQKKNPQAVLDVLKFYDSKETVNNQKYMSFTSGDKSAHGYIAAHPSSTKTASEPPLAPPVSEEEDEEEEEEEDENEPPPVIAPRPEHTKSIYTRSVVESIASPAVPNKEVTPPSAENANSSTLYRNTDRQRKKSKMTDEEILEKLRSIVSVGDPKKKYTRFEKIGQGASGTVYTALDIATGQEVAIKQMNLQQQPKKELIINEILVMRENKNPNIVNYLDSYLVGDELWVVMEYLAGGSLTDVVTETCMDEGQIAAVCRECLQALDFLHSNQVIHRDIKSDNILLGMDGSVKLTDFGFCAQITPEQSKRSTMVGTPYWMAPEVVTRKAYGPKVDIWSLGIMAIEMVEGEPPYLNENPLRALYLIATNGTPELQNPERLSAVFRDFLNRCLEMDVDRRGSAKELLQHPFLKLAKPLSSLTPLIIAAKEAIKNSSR
# PI3K gamma = PI3K gamma (Homo sapiens, UniProt P48736); conditions: 50 μg/ml
# PKCβII = PKCβII (Homo sapiens, UniProt P05771); conditions: read-out: PKCβII, % of Control
# PKCβII, sequence (P05771 1-673 isoform P05771-2): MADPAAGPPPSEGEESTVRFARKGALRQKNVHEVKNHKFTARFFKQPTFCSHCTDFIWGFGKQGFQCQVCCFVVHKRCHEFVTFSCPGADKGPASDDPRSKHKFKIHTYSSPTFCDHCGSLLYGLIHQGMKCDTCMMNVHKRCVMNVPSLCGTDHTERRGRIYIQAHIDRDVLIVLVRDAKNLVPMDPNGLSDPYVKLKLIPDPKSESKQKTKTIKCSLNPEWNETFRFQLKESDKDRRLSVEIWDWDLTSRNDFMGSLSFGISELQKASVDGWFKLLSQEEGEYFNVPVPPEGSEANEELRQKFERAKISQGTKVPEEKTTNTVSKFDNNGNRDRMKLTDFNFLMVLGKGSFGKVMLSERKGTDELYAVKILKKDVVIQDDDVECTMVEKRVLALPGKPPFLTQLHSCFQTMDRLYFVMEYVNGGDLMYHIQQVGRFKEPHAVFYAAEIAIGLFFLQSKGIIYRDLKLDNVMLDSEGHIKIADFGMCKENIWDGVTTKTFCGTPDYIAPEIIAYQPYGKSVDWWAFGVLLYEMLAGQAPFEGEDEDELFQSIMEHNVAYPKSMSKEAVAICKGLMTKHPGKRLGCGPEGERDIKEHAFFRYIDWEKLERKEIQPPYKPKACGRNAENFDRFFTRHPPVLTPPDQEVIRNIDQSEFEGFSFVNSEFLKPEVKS
# SGK = SGK (Homo sapiens, UniProt O00141); conditions: 5 ug/ml; read-out: SGK, % of Control
# SGK, sequence (O00141 whole entry): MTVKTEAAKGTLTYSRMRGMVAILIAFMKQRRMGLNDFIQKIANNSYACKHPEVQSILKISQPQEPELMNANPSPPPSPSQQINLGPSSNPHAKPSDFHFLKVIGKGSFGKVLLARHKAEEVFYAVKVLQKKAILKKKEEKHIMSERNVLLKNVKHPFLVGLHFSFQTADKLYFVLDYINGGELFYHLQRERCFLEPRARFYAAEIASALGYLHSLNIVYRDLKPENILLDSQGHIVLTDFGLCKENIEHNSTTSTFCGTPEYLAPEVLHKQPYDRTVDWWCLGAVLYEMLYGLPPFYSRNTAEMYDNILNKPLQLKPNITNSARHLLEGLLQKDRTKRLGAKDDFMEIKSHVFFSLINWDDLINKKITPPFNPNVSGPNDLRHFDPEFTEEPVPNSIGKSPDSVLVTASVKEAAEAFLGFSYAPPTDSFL
# Syk = Syk (Homo sapiens, UniProt P43405); conditions: read-out: Syk, % of Control
# PhKγ2 = biological target: T3, PhKγ2 (Homo sapiens, UniProt P15735); conditions: read-out: PhKγ2, % of Control
# T3 sequence (P15735 1-406): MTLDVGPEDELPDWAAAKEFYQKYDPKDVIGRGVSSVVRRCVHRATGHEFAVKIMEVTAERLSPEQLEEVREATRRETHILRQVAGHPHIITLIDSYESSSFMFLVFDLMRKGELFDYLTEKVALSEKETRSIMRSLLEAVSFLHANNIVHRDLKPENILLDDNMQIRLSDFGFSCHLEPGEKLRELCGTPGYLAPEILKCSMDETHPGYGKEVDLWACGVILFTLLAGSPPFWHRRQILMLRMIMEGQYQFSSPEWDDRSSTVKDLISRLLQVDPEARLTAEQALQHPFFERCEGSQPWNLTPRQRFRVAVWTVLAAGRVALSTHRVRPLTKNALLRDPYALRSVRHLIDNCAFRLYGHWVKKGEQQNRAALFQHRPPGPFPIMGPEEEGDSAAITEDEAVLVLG
# ALK4, sequence (P36896 24-505): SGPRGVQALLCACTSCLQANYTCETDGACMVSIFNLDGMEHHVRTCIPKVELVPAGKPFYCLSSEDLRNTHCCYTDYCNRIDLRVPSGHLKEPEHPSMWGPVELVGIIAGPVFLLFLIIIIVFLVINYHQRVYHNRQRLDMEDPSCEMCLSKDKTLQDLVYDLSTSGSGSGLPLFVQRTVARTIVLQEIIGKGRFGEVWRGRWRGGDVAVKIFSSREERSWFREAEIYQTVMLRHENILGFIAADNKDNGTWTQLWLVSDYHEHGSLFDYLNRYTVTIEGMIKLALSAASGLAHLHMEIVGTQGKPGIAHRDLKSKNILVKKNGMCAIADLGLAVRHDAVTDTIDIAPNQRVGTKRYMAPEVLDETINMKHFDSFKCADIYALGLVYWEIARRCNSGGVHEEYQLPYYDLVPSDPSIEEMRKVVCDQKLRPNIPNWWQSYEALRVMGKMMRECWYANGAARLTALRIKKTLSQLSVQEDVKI
structure (smiles),measurement,setting,value
"COc1cc(O)c(CC=C(C)C)c(O)c1C(=O)/C=C/c1ccc(O)cc1 [Xanthohumol, xanthohumol]",remaining activity at 1 µg/mL,ALK4; 1 ug/ml,116%
same,remaining activity at 25 µg/mL,ALK4; 25 ug/ml,71%
same,remaining activity at 5 µg/mL,Aurora-A; 5 ug/ml,27%
same,remaining activity at 25 µg/mL,Aurora-A; 25 ug/ml,3%
same,remaining activity at 50 µg/mL,Aurora-A; 50 ug/ml,8%
same,remaining activity at 1 µg/mL,BTK; 1 ug/ml,109%
same,remaining activity at 5 µg/mL,BTK; 5 ug/ml,57%
same,remaining activity at 50 µg/mL,BTK; 50 ug/ml,20%
same,remaining activity at 1 µg/mL,DAPK2; 1 ug/ml,105%
same,remaining activity at 5 µg/mL,DAPK2; 5 ug/ml,88%
same,remaining activity at 25 µg/mL,DAPK2; 25 ug/ml,45%
same,remaining activity at 50 µg/mL,DAPK2; 50 ug/ml,26%
same,remaining activity at 1 µg/mL,DRAK1; 1 ug/ml,133%
same,remaining activity at 25 µg/mL,DRAK1; 25 ug/ml,19%
same,remaining activity at 50 µg/mL,DRAK1; 50 ug/ml,-5%
same,remaining activity at 1 µg/mL,FGFR2; 1 ug/ml,116%
same,remaining activity at 5 µg/mL,FGFR2; 5 ug/ml,89%
same,remaining activity at 25 µg/mL,FGFR2; 25 ug/ml,36%
same,remaining activity at 1 µg/mL,Hck; 1 ug/ml,85%
same,remaining activity at 25 µg/mL,Hck; 25 ug/ml,17%
same,remaining activity at 1 µg/mL,HIPK2; 1 ug/ml,110%
same,remaining activity at 5 µg/mL,HIPK2; 5 ug/ml,98%
same,remaining activity at 1 µg/mL,PAK3; 1 ug/ml,21%
same,remaining activity at 5 µg/mL,PAK3; 5 ug/ml,18%
same,remaining activity at 25 µg/mL,PAK3; 25 ug/ml,8%
same,inhibition of PI3K-γ activity,PI3K gamma,more inhibitory to PI3K-γ than to PI3K-β or PI3K-δ
same,remaining activity at 1 µg/mL,PKCβII; 1 ug/ml,108%
same,remaining activity at 5 µg/mL,PKCβII; 5 ug/ml,108%
same,remaining activity at 25 µg/mL,PKCβII; 25 ug/ml,71%
same,remaining activity at 50 µg/mL,PKCβII; 50 ug/ml,79%
same,remaining activity at 5 µg/mL,SGK,84%
same,remaining activity at 1 µg/mL,Syk; 1 ug/ml,95%
same,remaining activity at 5 µg/mL,Syk; 5 ug/ml,60%
same,remaining activity at 25 µg/mL,Syk; 25 ug/ml,32%
same,remaining activity at 50 µg/mL,Syk; 50 ug/ml,17%
same,remaining activity at 1 µg/mL,PhKγ2; 1 ug/ml,106%
same,remaining activity at 5 µg/mL,PhKγ2; 5 ug/ml,60%
same,remaining activity at 25 µg/mL,PhKγ2; 25 ug/ml,11%
same,remaining activity at 50 µg/mL,PhKγ2; 50 ug/ml,5%
